Assay results published in patent US8969516B2, “Method of hydrolysis of peptide bond” (priority 2006, dated 2015).

Experiment: MALDI-TOF screening of Ni^2+ dependent hydrolysis in a combinatorial peptide library
Format: physicochemical
Conditions: CH3CO-Gly-Ala-Thr-X-His-Z-Lys-Phe-Leu-NH2 library, Ni^2+ 2 mM, pH 8.2, 10 mM Tris, score=24/tm
How it was run: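 The screen used 1 mM peptide mixtures in 10 mM Tris, pH 8.2, with 2 mM Ni2+ at two temperatures, 37 °C and 45 °C. Product appearance and substrate decline were monitored visually by MALDI-TOF over 8 h. Scores for X and Z were then summed by row and column to rank substitutions.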

Substance | hydrolysis score from MALDI-TOF screening (37° C.) | hydrolysis score from MALDI-TOF screening (45° C.)
Ac-GATAHIKFL-NH2 [TAHI] | 0 (a score of 0 if no trace of the product of hydrolysis was seen after 8 hours of incubation) | 0 (a score of 0 if no trace of the product of hydrolysis was seen after 8 hours of incubation)
Ac-GATAHKKFL-NH2 [TAHK] | 0 (a score of 0 if no trace of the product of hydrolysis was seen after 8 hours of incubation) | 0 (a score of 0 if no trace of the product of hydrolysis was seen after 8 hours of incubation)
Ac-GATAHLKFL-NH2 [TAHL] | 0 (a score of 0 if no trace of the product of hydrolysis was seen after 8 hours of incubation) | 0 (a score of 0 if no trace of the product of hydrolysis was seen after 8 hours of incubation)
Ac-GATAHMKFL-NH2 [TAHM] | 0 (a score of 0 if no trace of the product of hydrolysis was seen after 8 hours of incubation) | 0 (a score of 0 if no trace of the product of hydrolysis was seen after 8 hours of incubation)
Ac-GATAHNKFL-NH2 [TAHN] | 0 (a score of 0 if no trace of the product of hydrolysis was seen after 8 hours of incubation) | 0 (a score of 0 if no trace of the product of hydrolysis was seen after 8 hours of incubation)
Ac-GATAHPKFL-NH2 [TAHP] | 0 (a score of 0 if no trace of the product of hydrolysis was seen after 8 hours of incubation) | 0 (a score of 0 if no trace of the product of hydrolysis was seen after 8 hours of incubation)
Ac-GATAHQKFL-NH2 [TAHQ] | 0 (a score of 0 if no trace of the product of hydrolysis was seen after 8 hours of incubation) | 0 (a score of 0 if no trace of the product of hydrolysis was seen after 8 hours of incubation)
Ac-GATAHRKFL-NH2 [TAHR] | 0 (a score of 0 if no trace of the product of hydrolysis was seen after 8 hours of incubation) | 0 (a score of 0 if no trace of the product of hydrolysis was seen after 8 hours of incubation)
Ac-GATAHSKFL-NH2 [TAHS] | 0 (a score of 0 if no trace of the product of hydrolysis was seen after 8 hours of incubation) | 0 (a score of 0 if no trace of the product of hydrolysis was seen after 8 hours of incubation)
Ac-GATAHTKFL-NH2 [TAHT] | 0 (a score of 0 if no trace of the product of hydrolysis was seen after 8 hours of incubation) | 0 (a score of 0 if no trace of the product of hydrolysis was seen after 8 hours of incubation)
Ac-GATAHVKFL-NH2 [TAHV] | 0 (a score of 0 if no trace of the product of hydrolysis was seen after 8 hours of incubation) | 0 (a score of 0 if no trace of the product of hydrolysis was seen after 8 hours of incubation)
Ac-GATAHYKFL-NH2 [TAHY] | 0 (a score of 0 if no trace of the product of hydrolysis was seen after 8 hours of incubation) | 0 (a score of 0 if no trace of the product of hydrolysis was seen after 8 hours of incubation)
Ac-GATFHAKFL-NH2 [TFHA] | 0 (a score of 0 if no trace of the product of hydrolysis was seen after 8 hours of incubation) | 0 (a score of 0 if no trace of the product of hydrolysis was seen after 8 hours of incubation)
Ac-GATFHDKFL-NH2 [TFHD] | 0 (a score of 0 if no trace of the product of hydrolysis was seen after 8 hours of incubation) | 0 (a score of 0 if no trace of the product of hydrolysis was seen after 8 hours of incubation)
Ac-GATFHEKFL-NH2 [TFHE] | 0 (a score of 0 if no trace of the product of hydrolysis was seen after 8 hours of incubation) | 0 (a score of 0 if no trace of the product of hydrolysis was seen after 8 hours of incubation)
Ac-GATFHFKFL-NH2 [TFHF] | 0 (a score of 0 if no trace of the product of hydrolysis was seen after 8 hours of incubation) | 0 (a score of 0 if no trace of the product of hydrolysis was seen after 8 hours of incubation)
Ac-GATFHGKFL-NH2 [TFHG] | 0 (a score of 0 if no trace of the product of hydrolysis was seen after 8 hours of incubation) | 0 (a score of 0 if no trace of the product of hydrolysis was seen after 8 hours of incubation)
Ac-GATFHHKFL-NH2 [TFHH] | 0 (a score of 0 if no trace of the product of hydrolysis was seen after 8 hours of incubation) | 0 (a score of 0 if no trace of the product of hydrolysis was seen after 8 hours of incubation)
Ac-GATFHKKFL-NH2 [TFHK] | 3 (a score of 3 for detection at 8 hours) | 3 (a score of 3 for detection at 8 hours)
Ac-GATFHLKFL-NH2 [TFHL] | 0 (a score of 0 if no trace of the product of hydrolysis was seen after 8 hours of incubation) | 0 (a score of 0 if no trace of the product of hydrolysis was seen after 8 hours of incubation)
Ac-GATFHMKFL-NH2 [TFHM] | 0 (a score of 0 if no trace of the product of hydrolysis was seen after 8 hours of incubation) | 0 (a score of 0 if no trace of the product of hydrolysis was seen after 8 hours of incubation)
Ac-GATFHNKFL-NH2 [TFHN] | 0 (a score of 0 if no trace of the product of hydrolysis was seen after 8 hours of incubation) | 0 (a score of 0 if no trace of the product of hydrolysis was seen after 8 hours of incubation)
Ac-GATFHPKFL-NH2 [TFHP] | 0 (a score of 0 if no trace of the product of hydrolysis was seen after 8 hours of incubation) | 0 (a score of 0 if no trace of the product of hydrolysis was seen after 8 hours of incubation)
Ac-GATFHQKFL-NH2 [TFHQ] | 0 (a score of 0 if no trace of the product of hydrolysis was seen after 8 hours of incubation) | 0 (a score of 0 if no trace of the product of hydrolysis was seen after 8 hours of incubation)
Ac-GATFHRKFL-NH2 [TFHR] | 3 (a score of 3 for detection at 8 hours) | 4 (a score of 4 for detection at 6 hours)
